Reference: patent publication US7745450B2, “Pyrazolo[4,3-d]pyrimidines, processes for their preparation and methods for therapy” (Institute of Experimental Botany, priority 2002, dated 2010)
pIC50: −log10 of the molar value.

Experiments:
[1] = biological target: cdk1/cyclin B (CDC2) (Homo sapiens, UniProt P06493); test: CDK inhibition assay, cdk1/cyclin B (CDC2) kinase, histone phosphorylation; type: biochemical
Experimental: Selected compounds were tested for cdk1/cyclin B and cdk2/cyclin E inhibitory activity to determine the basic relationships between their interaction energy of docked complex and the inhibitory activity. Cdk2/cyclin E complex was produced in SIP insect cells co-infected with appropriate baculoviral construct. The cells were harvested 70 hours post infection in lysis buffer (50 mM Tris 7.4 pH, 150 mM NaCl, 5 mM EDTA, 20 mM NaF, 1% Tween 20, protease inhibitors) for 30 min on ice and the soluble fraction was recovered by centrifugation at 14.000 g for 10 min. The protein extract was stored at −80° C. until use. The final point test system for kinase activity measurement was used to carry out experiments on the kinetics under linear conditions. The assay mixture contained 1 mg/ml histone (Sigma Type III-S), 15 μM ATP, 0.2 μCi [γ-^32P] ATP and tested compound in a final volume of 20 μl, all in reaction buffer: 50 mM Hepes 7.4 pH, 10 mM MgCl2, 5 mM EGTA, 10 mM 2-glycerolphosphate, 1 mM NaF, 1 mM DTT and protease inhibitors. […] The measurement of kinase inhibition employed the digital imaging analyzer BAS 1800. The kinase activity was expressed as a percentage of maximum activity and the IC50 value was determined by graphic analysis. The kinase activity is expressed as a percentage of maximum activity, the apparent inhibition constants are determined by graphic analysis from dose-response curves presented on FIG. 1.

[2] = biological target: IκB-α kinase; test: IκB-α kinase inhibition, in vitro kinase assay; type: biochemical
[3] = system: CEM (human lymphoblastoid leukemia); test: In vitro cytotoxic activity, Calcein AM; type: cell-based; conditions: Homo sapiens, 72 h, three days
Experimental: We have been using the following cell lines: HELA (human cervical carcinoma), MCF7 (human breast adenocarcinoma), NIH 3T3 (mouse fibroblasts), HOS (human osteogenic sarcoma), HL 60 (human promyelocytic leukemia), G 361 (human malignant melanoma), K562 (human erythroleukemia), CEM (human lymphoblastoid leukemia). Tested drugs were added to the cell cultures in six different concentration and kept at 37° C. and 5% CO2 for three days. All cell lines were grown in DMEM medium (Gibco BRL) supplemented with 10% (v/v) fetal bovine serum and L-glutamine and maintained at 37° C. in a humidified atmosphere with 5% CO2. 10^4 cells were seeded into each well of 96 well plate, allowed to stabilize for at least 2 h and then tested compounds were added at various concentrations ranging from 200 to 0.2 μM in triplicates. Three days after drug addition Calcein AM solution (Molecular Probes) was added and let to enter the cells for 1 hour. Fluorescence of viable cells was quantified employing Fluoroskan Ascent (Microsystems).

[4] = system: B16; test: In vitro cytotoxic activity, Calcein AM; type: cell-based; conditions: Mus musculus, B16, 72 h, three days

cdk1/cyclin B (CDC2), sequence (P06493 whole entry, species assumed): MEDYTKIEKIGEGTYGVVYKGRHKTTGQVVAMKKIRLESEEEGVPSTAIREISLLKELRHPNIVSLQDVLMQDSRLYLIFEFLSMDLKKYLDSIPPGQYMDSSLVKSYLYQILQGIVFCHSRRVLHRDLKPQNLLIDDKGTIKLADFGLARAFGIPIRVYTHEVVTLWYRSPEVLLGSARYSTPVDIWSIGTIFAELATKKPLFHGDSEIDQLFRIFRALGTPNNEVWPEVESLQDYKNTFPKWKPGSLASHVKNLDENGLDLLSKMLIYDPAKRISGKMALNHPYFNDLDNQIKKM
cdk1/cyclin B (CDC2), sequence (P14635 whole entry partner, species assumed): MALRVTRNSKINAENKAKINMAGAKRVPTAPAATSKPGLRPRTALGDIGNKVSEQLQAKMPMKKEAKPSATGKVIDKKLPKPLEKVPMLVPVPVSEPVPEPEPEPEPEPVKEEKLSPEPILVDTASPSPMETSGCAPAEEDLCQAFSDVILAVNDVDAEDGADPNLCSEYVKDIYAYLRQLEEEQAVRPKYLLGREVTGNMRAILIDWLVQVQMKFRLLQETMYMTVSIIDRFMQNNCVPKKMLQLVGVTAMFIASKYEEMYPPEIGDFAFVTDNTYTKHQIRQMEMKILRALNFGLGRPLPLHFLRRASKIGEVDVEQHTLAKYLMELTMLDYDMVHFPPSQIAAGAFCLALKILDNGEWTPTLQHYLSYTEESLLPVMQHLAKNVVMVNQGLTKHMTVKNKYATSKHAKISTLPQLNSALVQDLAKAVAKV

Row | SMILES | pIC50 [1] | pIC50 [2] | GI50 [3] | GI50 [4]
1 | COc1ccc(CNc2nc(N[C@@H](CO)C(C)C)nc3c(C(C)C)n[nH]c23)c(O)c1O | – | – | 0.6 µM | 2.5 µM
2 | CC(C)c1n[nH]c2c(NCc3ccc(Cl)c(N)c3)nc(N[C@@H](CO)C(C)C)nc12 | – | – | 2.6 µM | 4.4 µM
3 | CC(=O)Oc1cccc(CNc2nc(N[C@@H](CO)C(C)C)nc3c(C(C)C)n[nH]c23)c1 | – | – | 12.5 µM | 14.6 µM
4 | CC(C)c1n[nH]c2c(NCc3cccc(O)c3)nc(N[C@@H](CO)C(C)C)nc12 [listing 1 of 2 here] | – | – | 4.9 µM | 8.5 µM
5 | Cc1n[nH]c2c(Nc3ccc(Cl)cc3)nc(NCCO)nc12 | 8.05 | 7.72 | – | –
6 | CC(C)c1n[nH]c2c(NCc3cccc(O)c3)nc(N[C@@H](CO)C(C)C)nc12 [listing 2 of 2 here] | 8.70 | 8.40 | – | –
7 | CC[C@H](CO)Nc1nc(Nc2ccc(C(=O)O)c(Cl)c2)c2[nH]nc(C(C)C)c2n1 | – | – | 7.9 µM | 11.2 µM
8 | CC(C)c1n[nH]c2c(NCc3ccc(Cl)c(O)c3O)nc(N[C@@H](CO)C(C)C)nc12 [listing 1 of 2 here] | 9.70 | 9.00 | – | –
9 | COc1cc(O)c(CNc2nc(N[C@@H](CO)C(C)C)nc3c(C(C)C)n[nH]c23)cc1O | – | – | 1.7 µM | 2.5 µM
10 | Cc1n[nH]c2c(NCc3cccc(Cl)c3O)nc(NCCO)nc12 | 8.00 | 7.52 | – | –
11 | CC[C@H](CO)Nc1nc(Nc2ccc(Cl)c(C(=O)O)c2)c2[nH]nc(C(C)C)c2n1 | – | – | 4.5 µM | 5.2 µM
12 | CC(C)c1n[nH]c2c(Nc3ccc(Br)cc3)nc(N[C@@H](CO)C(C)C)nc12 | – | – | 5.8 µM | 11.4 µM
13 | Cc1cccc(CNc2nc(N[C@@H](CO)C(C)C)nc3c(C(C)C)n[nH]c23)c1O | – | – | 1.2 µM | 3.5 µM
14 | Cc1n[nH]c2c(NC(CO)c3ccccc3)nc(NCCO)nc12 (racemic) | – | – | 8.9 µM | 9.4 µM
15 | CC(C)c1n[nH]c2c(NCc3ccc(O)c(O)c3)nc(N[C@@H](CO)C(C)C)nc12 | 6.82 | 6.51 | – | –
16 | COc1cc(O)c(CNc2nc(NCCO)nc3c(C)n[nH]c23)cc1O | 8.15 | 7.82 | – | –
17 | COc1cccc(CNc2nc(NCCO)nc3c(C)n[nH]c23)c1O | 8.00 | 7.40 | – | –
18 | CC(C)c1n[nH]c2c(Nc3ccc(C(=O)O)c(Cl)c3)nc(N[C@@H](CO)C(C)C)nc12 | – | – | 7.6 µM | 12.4 µM
19 | CC(=O)Oc1cccc(CNc2nc(NCCO)nc3c(C)n[nH]c23)c1 | 6.40 | 5.77 | – | –
20 | CC(C)c1n[nH]c2c(NCc3cc(O)c(Cl)cc3O)nc(N[C@@H](CO)C(C)C)nc12 | – | – | 1.3 µM | 2.7 µM
21 | CC[C@H](CO)Nc1nc(NCc2cc(O)c(OC)cc2O)c2[nH]nc(C(C)C)c2n1 | 8.70 | 8.22 | – | –
22 | CC[C@H](CO)Nc1nc(Nc2ccc(N)c(Cl)c2)c2[nH]nc(C(C)C)c2n1 | – | – | 12.2 µM | 19.6 µM
23 | CC(C)c1n[nH]c2c(NCc3ccccc3)nc(NCCO)nc12 | 6.00 | 5.64 | – | –

Row | SMILES | pIC50 [1] | pIC50 [2] | GI50 [3] | GI50 [4]
24 | CC(C)c1n[nH]c2c(NC(CO)c3ccccc3)nc(N[C@@H](CO)C(C)C)nc12 (mixture of isomers) | 7.22 | 6.82 | – | –
25 | CC(C)c1n[nH]c2c(NCc3ccccc3O)nc(N[C@@H](CO)C(C)C)nc12 [listing 1 of 2 here] | 9.30 | 9.00 | – | –
26 | Cc1n[nH]c2c(Nc3ccccc3)nc(NCCO)nc12 [2-hydroxyethylamino; anilino; methyl] | 7.05 | 6.68 | – | –
27 | COc1cc(O)c(CNc2nc(N[C@@H](CO)C(C)C)nc3c(C(C)C)n[nH]c23)c(O)c1 | 9.15 | 8.80 | – | –
28 | CC(C)c1n[nH]c2c(NCc3c(N)cccc3Cl)nc(N[C@@H](CO)C(C)C)nc12 | – | – | 1.5 µM | 2.5 µM
29 | CC[C@H](CO)Nc1nc(Nc2ccc(Cl)cc2)c2[nH]nc(C(C)C)c2n1 | – | – | 6.7 µM | 9.5 µM
30 | CC[C@H](CO)Nc1nc(NCc2c(O)cc(OC)cc2O)c2[nH]nc(C(C)C)c2n1 [listing 2 of 2 here] | – | – | 1.8 µM | 3.4 µM
31 | CC(C)c1n[nH]c2c(NCc3c(O)cc(Cl)cc3O)nc(N[C@@H](CO)C(C)C)nc12 [listing 1 of 2 here] | 9.00 | 8.70 | – | –
32 | CC(C)c1n[nH]c2c(NCc3ccc(Cl)c(O)c3O)nc(N[C@@H](CO)C(C)C)nc12 [listing 2 of 2 here] | – | – | 0.9 µM | 1.4 µM
33 | Cc1n[nH]c2c(Nc3ccc(N)c(Cl)c3)nc(NCCO)nc12 | 7.92 | 7.54 | – | –
34 | CC(C)c1n[nH]c2c(Nc3ccc(Cl)cc3)nc(N[C@@H](CO)C(C)C)nc12 | – | – | 4.1 µM | 5.7 µM
35 | CC[C@H](CO)Nc1nc(N(C)Cc2ccc(O)c(O)c2)c2[nH]nc(C(C)C)c2n1 | 6.64 | 6.29 | – | –
36 | Cc1n[nH]c2c(Nc3cccc(Cl)c3)nc(NCCO)nc12 | 7.40 | 7.05 | – | –
37 | Cc1n[nH]c2c(Nc3ccc(Cl)c(C(=O)O)c3)nc(NCCO)nc12 | 8.30 | 8.00 | – | –
38 | CC(C)c1n[nH]c2c(Nc3ccc(N)c(Cl)c3)nc(N[C@@H](CO)C(C)C)nc12 | – | – | 2.5 µM | 4.8 µM
39 | CC(C)c1n[nH]c2c(Nc3ccccc3)nc(N[C@@H](CO)C(C)C)nc12 | – | – | 2.5 µM | 3.6 µM
40 | CC(C)c1n[nH]c2c(NCc3ccccc3O)nc(N[C@@H](CO)C(C)C)nc12 [listing 2 of 2 here] | – | – | 6.7 µM | 9.8 µM
41 | CC(C)c1n[nH]c2c(Nc3ccc(Cl)c(C(=O)O)c3)nc(N[C@@H](CO)C(C)C)nc12 | – | – | 5.8 µM | 9.1 µM
42 | CC(C)c1n[nH]c2c(NCc3cccc(Cl)c3O)nc(N[C@@H](CO)C(C)C)nc12 | – | – | 0.7 µM | 1.1 µM
43 | CC(C)c1n[nH]c2c(NCc3c(O)cc(Cl)cc3O)nc(N[C@@H](CO)C(C)C)nc12 [listing 2 of 2 here] | – | – | 0.4 µM | 1.2 µM
44 | CC(C)c1n[nH]c2c(Nc3ccc(Cl)c(N)c3)nc(N[C@@H](CO)C(C)C)nc12 | – | – | 2.9 µM | 4.4 µM
45 | CC[C@H](CO)Nc1nc(Nc2ccc(Br)cc2)c2[nH]nc(C(C)C)c2n1 | – | – | 6.5 µM | 9.8 µM
46 | CC(C)c1n[nH]c2c(Nc3ccc(O)c(C(=O)O)c3)nc(N[C@@H](CO)C(C)C)nc12 | – | – | 2.7 µM | 4.2 µM

The next lines start with results.

Row | pIC50 [1] | pIC50 [2] | SMILES | GI50 [3] | GI50 [4]
47 | 7.05 | 6.68 | CC[C@H](CO)Nc1nc(NC(CO)c2ccccc2)c2[nH]nc(C(C)C)c2n1 (mixture of isomers) | – | –
48 | 8.00 | 7.40 | CC[C@H](CO)Nc1nc(NCc2cccc(C(C)=O)c2)c2[nH]nc(C(C)C)c2n1 | – | –
49 | 7.70 | 7.30 | Cc1n[nH]c2c(Nc3ccc(O)c(C(=O)O)c3)nc(NCCO)nc12 | – | –
50 | 7.70 | 7.30 | Cc1n[nH]c2c(NCc3ccccc3O)nc(NCCO)nc12 | – | –
51 | 7.40 | 7.05 | CC(=O)c1cccc(CNc2nc(NCCO)nc3c(C)n[nH]c23)c1 | – | –
52 | 6.22 | 6.15 | Cc1n[nH]c2c(NCc3ccc(Cl)c(N)c3N)nc(NCCO)nc12 | – | –
53 | 6.14 | 5.82 | CC[C@H](CO)Nc1nc(N(C)CCc2ccc(O)c(O)c2)c2[nH]nc(C(C)C)c2n1 | – | –
54 | 6.30 | 5.92 | CC(=O)Oc1ccccc1CNc1nc(NCCO)nc2c(C)n[nH]c12 | – | –
55 | 9.00 | 8.30 | CC(=O)c1cccc(CNc2nc(N[C@@H](CO)C(C)C)nc3c(C(C)C)n[nH]c23)c1 | – | –
56 | 9.10 | 8.52 | CC[C@H](CO)Nc1nc(NCc2c(O)cc(OC)cc2O)c2[nH]nc(C(C)C)c2n1 [listing 1 of 2 here] | – | –
57 | 5.30 | 4.96 | Cc1n[nH]c2c(NCc3ccc(O)c(O)c3)nc(NCCO)nc12 | – | –
58 | 8.30 | 7.92 | Cc1n[nH]c2c(NCc3c(O)cc(Cl)cc3O)nc(NCCO)nc12 | – | –
59 | 8.15 | 7.85 | Cc1n[nH]c2c(Nc3ccc(C(=O)O)c(Cl)c3)nc(NCCO)nc12 | – | –
60 | 7.10 | 6.62 | Cc1n[nH]c2c(NCc3cccc(O)c3)nc(NCCO)nc12 | – | –
61 | 6.05 | 5.68 | Cc1n[nH]c2c(NCc3ccccc3)nc(N(CCO)CCO)nc12 | – | –
62 | 8.10 | 7.55 | COc1ccc(CNc2nc(NCCO)nc3c(C)n[nH]c23)c(O)c1O | – | –
63 | 7.40 | 7.10 | Cc1n[nH]c2c(NCc3c(N)cccc3Cl)nc(NCCO)nc12 | – | –
64 | 6.15 | 6.05 | Cc1n[nH]c2c(N(C)Cc3ccc(O)c(O)c3)nc(NCCO)nc12 | – | –
65 | 5.40 | 5.03 | Cc1n[nH]c2c(NCc3ccccc3)nc(NCCO)nc12 [2-hydroxyethylamino; benzylamino; methyl] | – | –
66 | 6.70 | 6.10 | Cc1n[nH]c2c(NCc3ccc(Cl)c(N)c3)nc(NCCO)nc12 | – | –
